Assays:
[1] = target: T1, prostaglandin cyclooxygenase (Bos taurus, UniProt O62664); assay: in-vitro effect on prostaglandin cyclooxygenase; assay type: biochemical; details: read-out: IC50 for cyclooxygenase inhibition
T1 construct: from tissue; host or cells: bovine seminal vesicles (microsomes)
T1 sequence (O62664 25-600): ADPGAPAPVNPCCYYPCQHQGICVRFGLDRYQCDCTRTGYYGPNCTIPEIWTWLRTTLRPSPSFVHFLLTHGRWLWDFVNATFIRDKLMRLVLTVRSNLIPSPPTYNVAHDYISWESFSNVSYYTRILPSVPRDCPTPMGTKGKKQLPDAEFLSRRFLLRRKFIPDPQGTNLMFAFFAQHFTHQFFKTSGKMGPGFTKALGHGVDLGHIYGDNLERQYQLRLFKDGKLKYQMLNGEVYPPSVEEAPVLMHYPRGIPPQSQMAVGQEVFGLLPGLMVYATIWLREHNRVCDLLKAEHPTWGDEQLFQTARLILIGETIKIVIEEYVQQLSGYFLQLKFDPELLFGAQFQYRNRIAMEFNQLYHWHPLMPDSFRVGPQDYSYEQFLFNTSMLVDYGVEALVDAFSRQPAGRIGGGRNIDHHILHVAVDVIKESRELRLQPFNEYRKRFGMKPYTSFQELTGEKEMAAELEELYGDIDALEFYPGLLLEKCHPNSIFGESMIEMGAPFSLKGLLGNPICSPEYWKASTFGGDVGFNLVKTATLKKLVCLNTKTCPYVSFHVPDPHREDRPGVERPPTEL
Description: The in-vitro effect on prostaglandin cyclooxygenase is measured by a modification of the method of Takeguchi et al. described in Biochemistry 10, 2372 (1971); the testing procedure is described in U.S. Pat. No. 4,460,777.

thromboxane synthetase = target: T2, thromboxane synthetase (Homo sapiens, UniProt P24557); assay: in vitro inhibition of the thromboxane synthetase enzyme; assay type: biochemical
T2 construct: from tissue; host or cells: human platelets (microsomes)
T2 sequence (P24557 1-533): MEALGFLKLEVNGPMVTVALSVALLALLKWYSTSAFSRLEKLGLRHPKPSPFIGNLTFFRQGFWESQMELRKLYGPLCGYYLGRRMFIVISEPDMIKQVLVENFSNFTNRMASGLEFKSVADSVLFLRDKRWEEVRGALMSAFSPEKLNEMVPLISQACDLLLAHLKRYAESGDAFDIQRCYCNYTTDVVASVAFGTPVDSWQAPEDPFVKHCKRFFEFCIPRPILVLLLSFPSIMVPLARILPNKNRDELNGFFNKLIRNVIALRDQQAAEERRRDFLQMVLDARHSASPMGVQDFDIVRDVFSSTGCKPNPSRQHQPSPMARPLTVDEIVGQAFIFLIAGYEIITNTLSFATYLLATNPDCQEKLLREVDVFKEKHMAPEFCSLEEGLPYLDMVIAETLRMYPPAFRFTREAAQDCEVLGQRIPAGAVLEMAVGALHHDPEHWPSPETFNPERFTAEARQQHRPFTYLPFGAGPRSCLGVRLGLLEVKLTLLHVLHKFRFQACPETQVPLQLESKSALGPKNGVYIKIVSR
Source text: Res. Comm. 74, 1432 (1977). The testing procedure is essentially carried out as described in U.S. Pat. No. 4,460,777.

Row | IC50 [1] | IC50 (thromboxane synthetase) | Structure (SMILES)
1 | > 1000 µM |  | O=C(O)CCCCc1cn(-c2cccnc2)c2ccccc12 [3-(4-carboxybutyl)-N-(3-pyridyl)indole, 3-(4-carboxybutyl)-N-(3-pyridyl)-indole]
2 |  | ~0.4 µM | O=C(O)CCCC(=O)c1cn(-c2cccnc2)c2ccccc12 [Example 2, 3-(1-oxo-4-carboxybutyl)-N-(3-pyridyl)-indole]
